Results reported in US7138361B2, “Herbicidal heterocycles” (E. I. du Pont de Nemours and Company, priority 2000, dated 2006).

What was measured:
Assay type in all cases: in vivo
wild oat (Avena fatua) = test: Test B postemergence; details: 13 to 15 days
Method in brief: (§1)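 Greenhouse test: chemicals are formulated in a surfactant-containing non-phytotoxic solvent and applied either preemergence to planted seeds or postemergence to plants 2 to 18 cm tall. Response is rated visually versus controls after 13 to 15 days, 0 meaning no effect and 100 complete control.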

[1] = tested on: Surinam grass (Brachiaria decumbens); test: Test B postemergence; details: 13 to 15 days
Method in brief: as §1

[2] = tested on: cocklebur (Xanthium strumarium); test: Test B postemergence; details: 13 to 15 days
Method in brief: as §1

[3] = tested on: giant foxtail (Setaria faberii); test: Test B postemergence; details: 13 to 15 days
Method in brief: as §1

corn (Zea mays) [4] = test: Test B postemergence; details: 13 to 15 days
Method in brief: as §1

[5] = tested on: velvetleaf (Abutilon theophrasti); test: Test B postemergence; details: 13 to 15 days
Method in brief: as §1

[6] = tested on: wheat (Triticum aestivum); test: Test B postemergence; details: 13 to 15 days
Method in brief: as §1

[7] = tested on: crabgrass (Digitaria sanguinalis); test: Test B postemergence; details: 13 to 15 days
Method in brief: as §1

[8] = tested on: morning glory (Ipomoea hederacea); test: Test B postemergence; details: 13 to 15 days
Method in brief: as §1

[9] = tested on: barnyardgrass (Echinochloa crus-galli); test: Test B postemergence; details: 13 to 15 days
Method in brief: as §1

[10] = tested on: pigweed (Amaranthus retroflexus); test: Test B postemergence; details: 13 to 15 days
Method in brief: as §1

[11] = tested on: yellow nutsedge (Cyperus esculentus); test: Test C preemergence; details: for Plant response rating, Nutsedge: scale 0 to 100, 0 no effect, 100 complete control; for Plant response rating (0 to 100), Nutsedge: Rate 500 g/ha, visual evaluation after 12 to 14 days
Method in brief: (§2)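 Compounds in non-phytotoxic solvent with surfactant applied preemergence to planted seeds and postemergence to plants at 1- to 4-leaf stage (2–18 cm). Kept in greenhouse 12–14 days, then visually rated against controls on a 0 (no effect) to 100 (complete control) scale.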

[12] = tested on: common ragweed (Ambrosia elatior); test: Test C preemergence; details: preemergence; for Plant response rating (0 to 100), Ragweed, Common: Rate 500 g/ha, visual evaluation after 12 to 14 days; for Plant response rating, Ragweed, Common: scale 0 to 100, 0 no effect, 100 complete control
Method in brief: as §2

corn (Zea mays) [13] = test: Test C preemergence; details: for Plant response rating, Corn: scale 0 to 100, 0 no effect, 100 complete control; for Plant response rating (0 to 100), Corn: visual evaluation after 12 to 14 days
Method in brief: as §2

[14] = tested on: velvetleaf (Abutilon theophrasti); test: Test C preemergence; details: preemergence; for Plant response rating (0 to 100), Velvetleaf: Rate 500 g/ha, visual evaluation after 12 to 14 days; for Plant response rating, Velvetleaf: scale 0 to 100, 0 no effect, 100 complete control
Method in brief: as §2

[15] = tested on: goosegrass (Eleusine indica); test: Test C preemergence; details: for Plant response rating, Goosegrass: scale 0 to 100, 0 no effect, 100 complete control; for Plant response rating (0 to 100), Goosegrass: visual evaluation after 12 to 14 days
Method in brief: as §2

[16] = tested on: johnsongrass (Sorghum halepense); test: Test C preemergence; details: for Plant response rating, Johnsongrass: scale 0 to 100, 0 no effect, 100 complete control; for Plant response rating (0 to 100), Johnsongrass: visual evaluation after 12 to 14 days
Method in brief: as §2

Nightshade = test: Test C preemergence; details: scale 0 to 100, 0 no effect, 100 complete control
[17] = tested on: morningglory (Ipomoea hederacea); test: Test C preemergence; details: for Plant response rating, Morningglory: scale 0 to 100, 0 no effect, 100 complete control; for Plant response rating (0 to 100), Morningglory: Rate 500 g/ha, visual evaluation after 12 to 14 days
Method in brief: as §2

Sunflower = test: Test C preemergence; details: Rate 500 g/ha, visual evaluation after 12 to 14 days
[18] = Rate 125 g/ha, scale 0 (no effect) to 100 (complete control)
[19] = Rate 500 g/ha, scale 0 to 100, 0 is no effect, 100 is complete control

In the case of `CC1(c2ccn(C3SCN(c4cccc(C(F)(F)F)c4)C3=O)n2)CC1` (centres unmarked) [Compound 64], the “Plant response rating, Wild Oat” value (wild oat (Avena fatua); [18]) is reported as 0, the “Plant response rating, Wild Oat” value (wild oat (Avena fatua); [19]) is reported as 0 and the “Plant response rating, Surinam grass” value [1, 18] is reported as 0. The “Plant response rating, Surinam grass” value [1, 19] was 40, the “Plant response rating, Cocklebur” value [2, 18] was 70 and the “Plant response rating, Cocklebur” value [2, 19] was 70. The “Plant response rating, Foxtail, Giant” value [3, 18] was 0, the “Plant response rating, Foxtail, Giant” value [3, 19] was 30 and the “Plant response rating, Corn” value (corn (Zea mays) [4]; [18]) was 0. For the same compound, the “Plant response rating, Corn” value (corn (Zea mays) [4]; [19]) was 20, the “Plant response rating, Velvetleaf” value [5, 18] was 0 and the “Plant response rating, Velvetleaf” value [5, 19] was 30. For the same compound, the “Plant response rating, Wheat” value [6, 18] was 0, the “Plant response rating, Wheat” value [6, 19] was 0 and the “Plant response rating, Crabgrass” value [7, 18] was 0. The “Plant response rating, Crabgrass” value [7, 19] was 50, the “Plant response rating, Morningglory” value [8, 18] was 0 and the “Plant response rating, Morningglory” value [8, 19] was 60. The “Plant response rating, Barnyardgrass” value [9, 18] was 0, the “Plant response rating, Barnyardgrass” value [9, 19] was 50 and the “Plant response rating, Pigweed” value [10, 18] was 40. For the same compound, the “Plant response rating, Pigweed” value [10, 19] was 70, the “Plant response rating, Nutsedge” value ([11]; Rate 62 g/ha) was 0 and the “Plant response rating (0 to 100), Nutsedge” value ([11]; preemergence) was 50. For the same compound, the “Plant response rating, Nutsedge” value ([11]; preemergence, Rate 125 g/ha) was 0, the “Plant response rating, Nutsedge” value ([11]; preemergence, Rate 250 g/ha) was 50 and the “Plant response rating (0 to 100), Ragweed, Common” value [12] was 90. The “Plant response rating, Ragweed, Common” value ([12]; Rate 125 g/ha) was 50, the “Plant response rating, Ragweed, Common” value ([12]; Rate 250 g/ha) was 80 and the “Plant response rating, Corn” value (corn (Zea mays) [13]; Rate 62 g/ha) was 0. The “Plant response rating (0 to 100), Corn” value (corn (Zea mays) [13]; preemergence, Rate 250 g/ha) was 30, the “Plant response rating (0 to 100), Corn” value (corn (Zea mays) [13]; preemergence, Rate 500 g/ha) was 40 and the “Plant response rating, Corn” value (corn (Zea mays) [13]; preemergence, Rate 125 g/ha) was 0. The “Plant response rating (0 to 100), Velvetleaf” value [14] was 50, the “Plant response rating, Velvetleaf” value ([14]; Rate 125 g/ha) was 0 and the “Plant response rating, Velvetleaf” value ([14]; Rate 250 g/ha) was 20. The “Plant response rating, Goosegrass” value ([15]; Rate 62 g/ha) was 100, the “Plant response rating (0 to 100), Goosegrass” value ([15]; preemergence, Rate 250 g/ha) was 100 and the “Plant response rating (0 to 100), Goosegrass” value ([15]; preemergence, Rate 500 g/ha) was 100. For the same compound, the “Plant response rating, Goosegrass” value ([15]; preemergence, Rate 125 g/ha) was 100, the “Plant response rating, Johnsongrass” value ([16]; Rate 62 g/ha) was 30 and the “Plant response rating (0 to 100), Johnsongrass” value ([16]; preemergence, Rate 250 g/ha) was 90. The “Plant response rating (0 to 100), Johnsongrass” value ([16]; preemergence, Rate 500 g/ha) was 100, the “Plant response rating, Johnsongrass” value ([16]; preemergence, Rate 125 g/ha) was 70 and the “Plant response rating, Nightshade” value (Nightshade; Rate 62 g/ha) was 30. The “Plant response rating, Nightshade” value (Nightshade; Rate 125 g/ha) was 70, the “Plant response rating, Nightshade” value (Nightshade; Rate 250 g/ha) was 90 and the “Plant response rating, Morningglory” value ([17]; Rate 62 g/ha) was 40. The “Plant response rating (0 to 100), Morningglory” value ([17]; preemergence) was 60, the “Plant response rating, Morningglory” value ([17]; preemergence, Rate 125 g/ha) was 40 and the “Plant response rating, Morningglory” value ([17]; preemergence, Rate 250 g/ha) was 40. For the same compound, the “Plant response rating (0 to 100), Sunflower” value (Sunflower) was 60.

`COc1cc(OC)cc(N2CCC(n3ccc(C(C)(C)C)n3)C2=O)c1` (centres unmarked) [Compound 71] was tested, and the “Plant response rating, Wild Oat” value (wild oat (Avena fatua); [18]) was 0, the “Plant response rating, Wild Oat” value (wild oat (Avena fatua); [19]) was 0 and the “Plant response rating, Surinam grass” value [1, 18] was 0. For the same compound, the “Plant response rating, Surinam grass” value [1, 19] was 30, the “Plant response rating, Cocklebur” value [2, 18] was 0 and the “Plant response rating, Cocklebur” value [2, 19] was 20. For the same compound, the “Plant response rating, Foxtail, Giant” value [3, 18] was 0, the “Plant response rating, Foxtail, Giant” value [3, 19] was 20 and the “Plant response rating, Corn” value (corn (Zea mays) [4]; [18]) was 0. The “Plant response rating, Corn” value (corn (Zea mays) [4]; [19]) was 0, the “Plant response rating, Velvetleaf” value [5, 18] was 0 and the “Plant response rating, Velvetleaf” value [5, 19] was 20. The “Plant response rating, Wheat” value [6, 18] was 0, the “Plant response rating, Wheat” value [6, 19] was 0 and the “Plant response rating, Crabgrass” value [7, 18] was 0. The “Plant response rating, Crabgrass” value [7, 19] was 30, the “Plant response rating, Morningglory” value [8, 18] was 20 and the “Plant response rating, Morningglory” value [8, 19] was 20. For the same compound, the “Plant response rating, Barnyardgrass” value [9, 18] was 0, the “Plant response rating, Barnyardgrass” value [9, 19] was 0 and the “Plant response rating, Pigweed” value [10, 18] was 30. The “Plant response rating, Pigweed” value [10, 19] was 60, the “Plant response rating, Nutsedge” value ([11]; Rate 62 g/ha) was 0 and the “Plant response rating (0 to 100), Nutsedge” value ([11]; preemergence) was 70. The “Plant response rating, Nutsedge” value ([11]; preemergence, Rate 125 g/ha) was 30, the “Plant response rating, Nutsedge” value ([11]; preemergence, Rate 250 g/ha) was 70 and the “Plant response rating (0 to 100), Ragweed, Common” value [12] was 30. The “Plant response rating, Ragweed, Common” value ([12]; Rate 125 g/ha) was 0, the “Plant response rating, Ragweed, Common” value ([12]; Rate 250 g/ha) was 0 and the “Plant response rating, Corn” value (corn (Zea mays) [13]; Rate 62 g/ha) was 0. The “Plant response rating (0 to 100), Corn” value (corn (Zea mays) [13]; preemergence, Rate 250 g/ha) was 0, the “Plant response rating (0 to 100), Corn” value (corn (Zea mays) [13]; preemergence, Rate 500 g/ha) was 30 and the “Plant response rating, Corn” value (corn (Zea mays) [13]; preemergence, Rate 125 g/ha) was 0. The “Plant response rating (0 to 100), Velvetleaf” value [14] was 0, the “Plant response rating, Velvetleaf” value ([14]; Rate 125 g/ha) was 0 and the “Plant response rating, Velvetleaf” value ([14]; Rate 250 g/ha) was 0. The “Plant response rating, Goosegrass” value ([15]; Rate 62 g/ha) was 30, the “Plant response rating (0 to 100), Goosegrass” value ([15]; preemergence, Rate 250 g/ha) was 100 and the “Plant response rating (0 to 100), Goosegrass” value ([15]; preemergence, Rate 500 g/ha) was 100. The “Plant response rating, Goosegrass” value ([15]; preemergence, Rate 125 g/ha) was 90, the “Plant response rating, Johnsongrass” value ([16]; Rate 62 g/ha) was 0 and the “Plant response rating (0 to 100), Johnsongrass” value ([16]; preemergence, Rate 250 g/ha) was 0. The “Plant response rating (0 to 100), Johnsongrass” value ([16]; preemergence, Rate 500 g/ha) was 40, the “Plant response rating, Johnsongrass” value ([16]; preemergence, Rate 125 g/ha) was 0 and the “Plant response rating, Nightshade” value (Nightshade; Rate 62 g/ha) was 0. The “Plant response rating, Nightshade” value (Nightshade; Rate 125 g/ha) was 20, the “Plant response rating, Nightshade” value (Nightshade; Rate 250 g/ha) was 30 and the “Plant response rating, Morningglory” value ([17]; Rate 62 g/ha) was 0. The “Plant response rating (0 to 100), Morningglory” value ([17]; preemergence) was 0, the “Plant response rating, Morningglory” value ([17]; preemergence, Rate 125 g/ha) was 0 and the “Plant response rating, Morningglory” value ([17]; preemergence, Rate 250 g/ha) was 0. For the same compound, the “Plant response rating (0 to 100), Sunflower” value (Sunflower) was 20.
